According to PubChem BioAssay AID1963858 (Molecular Pharmacology Branch, DTP, NCI, 2024):

Tested on: HOP-62 multicell spheroids with HUVEC/MSC, viability
Assay: Anticancer human tumor HOP-62 cell line growth inhibition [KRAS2];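 note: viability read after a week of compound exposure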;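 for viability, T/C: 100% = DMSO vehicle-treated spheroids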
Settings: for IC50: curve of first compound; for viability, T/C: stronger effect = lower value
How it was run: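 Combination screen of spheroid viability in tumor-cell co-cultures with endothelial (HUVEC) and mesenchymal stem cell stroma. Each agent was tested in half-log dilutions, topping at clinical Cmax or at 10 microM without a known Cmax.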

[1] = second compound 0.0316 µM, first compound 0.000316 µM
[2] = second compound 0.0316 µM, first compound 0.001 µM
[3] = second compound 0.0316 µM, first compound 0.00316 µM
[4] = second compound 0.0316 µM, first compound 0.01 µM
[5] = second compound 0.0316 µM, first compound 0.0316 µM
[6] = second compound 0.1 µM, first compound 0.000316 µM
[7] = second compound 0.1 µM, first compound 0.001 µM
[8] = second compound 0.1 µM, first compound 0.00316 µM
[9] = second compound 0.1 µM, first compound 0.01 µM
[10] = second compound 0.1 µM, first compound 0.0316 µM
[11] = second compound 0.316 µM, first compound 0.000316 µM
[12] = second compound 0.316 µM, first compound 0.001 µM
[13] = second compound 0.316 µM, first compound 0.00316 µM
[14] = second compound 0.316 µM, first compound 0.01 µM
[15] = second compound 0.316 µM, first compound 0.0316 µM
[16] = second compound 1 µM, first compound 0.000316 µM
[17] = second compound 1 µM, first compound 0.001 µM
[18] = second compound 1 µM, first compound 0.00316 µM
[19] = second compound 1 µM, first compound 0.01 µM
[20] = second compound 1 µM, first compound 0.0316 µM
[21] = second compound 3.16 µM, first compound 0.000316 µM
[22] = second compound 3.16 µM, first compound 0.001 µM
[23] = second compound 3.16 µM, first compound 0.00316 µM
[24] = second compound 3.16 µM, first compound 0.01 µM
[25] = second compound 3.16 µM, first compound 0.0316 µM
[26] = second compound 0.0316 µM, first compound 0.1 µM
[27] = second compound 0.1 µM, first compound 0.1 µM
[28] = second compound 0.316 µM, first compound 0.1 µM
[29] = second compound 1 µM, first compound 0.1 µM
[30] = second compound 3.16 µM, first compound 0.1 µM

With `CC(=O)Nc1cccc(-n2c(=O)n(C3CC3)c(=O)c3c(Nc4ccc(I)cc4F)n(C)c(=O)c(C)c32)c1` + C=CC(=O)N1CCN(c2nc(OCC3CCCN3C)nc3c2CCN(c2cccc4cccc(C)c24)C3)CC1CC#N the IC50 (second compound 0.0316 µM) was 1.49 nM, the IC50 (second compound 0.1 µM) was 1.01 nM and the IC50 (second compound 0.316 µM) was 0.406 nM. For the same molecule, the IC50 (second compound 1 µM) was < 0.1 nM, the IC50 (second compound 3.16 µM) was < 0.1 nM and the viability, T/C (second compound 0.0316 µM, first compound 0.0001 µM) was 83.2%. The viability, T/C [1] was 75%, the viability, T/C [2] was 56.2% and the viability, T/C [3] was 38.9%. For the same molecule, the viability, T/C [4] was 23.4%, the viability, T/C [5] was 25.5% and the viability, T/C (second compound 0.1 µM, first compound 0.0001 µM) was 64.8%. It also gave a viability, T/C [6] of 60.9%, a viability, T/C [7] of 50.5% and a viability, T/C [8] of 27.4%. It also gave a viability, T/C [9] of 19.4%, a viability, T/C [10] of 24.3% and a viability, T/C (second compound 0.316 µM, first compound 0.0001 µM) of 52.3%. It also gave a viability, T/C [11] of 53.6%, a viability, T/C [12] of 40% and a viability, T/C [13] of 18.4%. For the same molecule, the viability, T/C [14] was 15.7%, the viability, T/C [15] was 17.3% and the viability, T/C (second compound 1 µM, first compound 0.0001 µM) was 34.4%. For the same molecule, the viability, T/C [16] was 28.1%, the viability, T/C [17] was 18% and the viability, T/C [18] was 15%. The viability, T/C [19] was 12.5%, the viability, T/C [20] was 12.5% and the viability, T/C (second compound 3.16 µM, first compound 0.0001 µM) was 18.2%. For the same molecule, the viability, T/C [21] was 1.3%, the viability, T/C [22] was 9.7% and the viability, T/C [23] was 12.7%. The viability, T/C [24] was 1.72% and the viability, T/C [25] was 1.33%.
In the case of `CC(C)n1nc(-c2ccc3oc(N)nc3c2)c2c(N)ncnc21` + C=CC(=O)N1CCN(c2nc(OCC3CCCN3C)nc3c2CCN(c2cccc4cccc(C)c24)C3)CC1CC#N, the IC50 (second compound 0.0316 µM) is reported as 0.471 nM, the IC50 (second compound 0.1 µM) is reported as < 0.316 nM and the IC50 (second compound 0.316 µM) is reported as < 0.316 nM. For the same molecule, the IC50 (second compound 1 µM) was < 0.316 nM, the IC50 (second compound 3.16 µM) was < 0.316 nM and the viability, T/C [1] was 57.1%. For the same molecule, the viability, T/C [2] was 37%, the viability, T/C [3] was 23.5% and the viability, T/C [4] was 17.5%. It also gave a viability, T/C [5] of 12.1%, a viability, T/C [26] of 9.28% and a viability, T/C [6] of 36.3%. For the same molecule, the viability, T/C [7] was 30.6%, the viability, T/C [8] was 14.9% and the viability, T/C [9] was 12.8%. It also gave a viability, T/C [10] of 11%, a viability, T/C [27] of 8.68% and a viability, T/C [11] of 29.9%. The viability, T/C [12] was 19.6%, the viability, T/C [13] was 14.9% and the viability, T/C [14] was 10.6%. For the same molecule, the viability, T/C [15] was 8.56%, the viability, T/C [28] was 7.08% and the viability, T/C [16] was 23.1%. For the same molecule, the viability, T/C [17] was 16.1%, the viability, T/C [18] was 13.3% and the viability, T/C [19] was 9.5%. It also gave a viability, T/C [20] of 7.25%, a viability, T/C [29] of 5.88% and a viability, T/C [21] of 5%. The viability, T/C [22] was 0.34%, the viability, T/C [23] was 2.87% and the viability, T/C [24] was 0.44%. For the same molecule, the viability, T/C [25] was 0.63% and the viability, T/C [30] was 0.48%.
With `CC1(C)CCC(CN2CCN(c3ccc(C(=O)NS(=O)(=O)c4ccc(NCC5CCOCC5)c([N+](=O)[O-])c4)c(Oc4cnc5[nH]ccc5c4)c3)CC2)=C(c2ccc(Cl)cc2)C1` + C=CC(=O)N1CCN(c2nc(OCC3CCCN3C)nc3c2CCN(c2cccc4cccc(C)c24)C3)CC1CC#N the IC50 (second compound 0.0316 µM) was 1510 nM, the IC50 (second compound 0.1 µM) was < 31.6 nM and the IC50 (second compound 0.316 µM) was < 31.6 nM. The IC50 (second compound 1 µM) was < 31.6 nM, the IC50 (second compound 3.16 µM) was < 31.6 nM and the viability, T/C [5] was 58.8%. For the same molecule, the viability, T/C [26] was 54.1%, the viability, T/C (second compound 0.0316 µM, first compound 0.316 µM) was 54.9% and the viability, T/C (second compound 0.0316 µM, first compound 1 µM) was 56%. The viability, T/C (second compound 0.0316 µM, first compound 3.16 µM) was 39.5%, the viability, T/C (second compound 0.0316 µM, first compound 10 µM) was 22.7% and the viability, T/C [10] was 48.9%. The viability, T/C [27] was 41.4%, the viability, T/C (second compound 0.1 µM, first compound 0.316 µM) was 37.8% and the viability, T/C (second compound 0.1 µM, first compound 1 µM) was 36.4%. For the same molecule, the viability, T/C (second compound 0.1 µM, first compound 3.16 µM) was 37.2%, the viability, T/C (second compound 0.1 µM, first compound 10 µM) was 21.6% and the viability, T/C [15] was 36.6%. It also gave a viability, T/C [28] of 41.6%, a viability, T/C (second compound 0.316 µM, first compound 0.316 µM) of 26.4% and a viability, T/C (second compound 0.316 µM, first compound 1 µM) of 38.2%. The viability, T/C (second compound 0.316 µM, first compound 3.16 µM) was 26.9%, the viability, T/C (second compound 0.316 µM, first compound 10 µM) was 16% and the viability, T/C [20] was 24.6%. For the same molecule, the viability, T/C [29] was 22.6%, the viability, T/C (second compound 1 µM, first compound 0.316 µM) was 27.1% and the viability, T/C (second compound 1 µM, first compound 1 µM) was 22.9%. The viability, T/C (second compound 1 µM, first compound 3.16 µM) was 24.1%, the viability, T/C (second compound 1 µM, first compound 10 µM) was 5.4% and the viability, T/C [25] was 1.22%. For the same molecule, the viability, T/C [30] was 0.15%, the viability, T/C (second compound 3.16 µM, first compound 0.316 µM) was 0.14% and the viability, T/C (second compound 3.16 µM, first compound 1 µM) was 0.16%. For the same molecule, the viability, T/C (second compound 3.16 µM, first compound 3.16 µM) was 0.14% and the viability, T/C (second compound 3.16 µM, first compound 10 µM) was 0.18%.
